Reference: patent US20250382268A1, “METHODS AND COMPOSITIONS FOR SELECTIVELY INHIBITING PATHOGENIC MICROBES” (priority 2019, published 2025)
Converted amounts (≈) assume the structure as drawn. Like-named read-outs stand apart in the source and are kept apart here.

Tests used:
HepG2 cells [1] = experiment: Cytotoxicity MTT assay in HepG2 cells; type: cell-based; details: Homo sapiens
Description: Additionally, the antimicrobial compounds were analyzed for cytotoxicity. […] We utilized the standard MTT assay (Promega CellTiter 96) and GraphPad Prism 7 software to determine EC50 values for each analogue. Briefly, 20,000 HepG2 cells in 200 μl of the ATCC recommended media were seeded in each well of a 96-well plate with a moisture barrier created in the outermost wells. The cells were allowed to attach overnight at 37° C., and then observed under phase contrast microscopy for proper morphological characteristics. […] Once incubations were complete, the spectrophotometric absorbance of the samples was measured at a wavelength of 595 nm. […] For the HepaRG assay, NoSpin HepaRG™ cells (Lonza, cat #NSHPRG) were thawed and plated with 20,000 cells per well. They were allowed to attach for 4 h (optimal DME profile per Lonza's testing) before dosing following the identical protocol as above.

HepG2 cells [2] = experiment: SYTOX permeabilization assay on HepG2 cells; type: cell-based; details: up to 4× MIC, FIG. 2C
[3] = test system: branched chain amino acid synthesis pathway; experiment: Transcriptomic (RNAseq) and metabolic mechanism of action studies
Staphylococcus aureus = experiment: microbe, parasite or virus in culture
Bacillus subtilis = experiment: MIC/MBC against Bacillus subtilis strains; type: cell-based
[4] = test system: Burkholderia thailandensis; experiment: microbe, parasite or virus in culture; type: cell-based
Burkholderia cenocepacia = experiment: microbe, parasite or virus in culture; type: cell-based
Bacillus thuringiensis = experiment: microbe, parasite or virus in culture; type: cell-based
Candida glabrata = experiment: microbe, parasite or virus in culture; type: cell-based; details: Nakaseomyces glabratus
S. aureus [5] = experiment: Macromolecular synthesis assay (glucosamine incorporation into cell wall); type: cell-based, Staphylococcus aureus; details: dose-response, FIG. 2A-2B
S. aureus [6] = experiment: SYTOX green cell permeability assay on S. aureus; type: cell-based, Staphylococcus aureus; details: concentrations relative to the MIC, FIG. 1A

Compound: Nc1ccccc1Sc1c[nH]c2ccc(Br)cc12 [Compound 174M, 2-((5-bromo-1H-indol-3-yl)thio)aniline]
- EC50 (HepG2 cells [1]): 26.5 µg/mL (≈ 83 µM)
- permeabilization of HepG2 cells (SYTOX) (HepG2 cells [2]): no permeabilization of HepG2 cells
- mechanism of action by transcriptomic and metabolic studies [3]: branched chain amino acid biosynthesis inhibition
- MIC (Staphylococcus aureus; MRSA, read-out: Staphylococcus aureus MIC, MRSA strain HM-467): 12.5 µg/mL (≈ 39.2 µM)
- MIC (Staphylococcus aureus; MRSA, read-out: Staphylococcus aureus MIC, MRSA strain NK-41886): 12.5 µg/mL (≈ 39.2 µM)
- MIC (Staphylococcus aureus; MRSA, read-out: Staphylococcus aureus MIC, MRSA strain NR-13533): 12.5 µg/mL (≈ 39.2 µM)
- MIC (Staphylococcus aureus; MRSA, read-out: Staphylococcus aureus MIC, MRSA strain NR-28983): 12.5 µg/mL (≈ 39.2 µM)
- MIC (Staphylococcus aureus; MRSA, read-out: Staphylococcus aureus MIC, MRSA strain NR-41875): 12.5 µg/mL (≈ 39.2 µM)
- MIC (Staphylococcus aureus; MRSA, read-out: Staphylococcus aureus MIC, MRSA strain NR-41876): 12.5 µg/mL (≈ 39.2 µM)
- MIC (Staphylococcus aureus; MRSA, read-out: Staphylococcus aureus MIC, MRSA strain NR-41877): 25 µg/mL (≈ 78.3 µM)
- MIC (Staphylococcus aureus; MRSA, read-out: Staphylococcus aureus MIC, MRSA strain NR-41878): 12.5 µg/mL (≈ 39.2 µM)
- MIC (Staphylococcus aureus; read-out: Staphylococcus aureus MIC, VSSA NR-49121): 12.5 µg/mL (≈ 39.2 µM)

Compound: Brc1ccc(Oc2c[nH]c3cc(Br)ccc23)cc1 [174AC, 6-bromo-3-(4-bromophenoxy)-1H-indole]
- MBC (Bacillus subtilis): 16 µg/mL (≈ 43.6 µM)
- MIC (Bacillus subtilis): 8 µg/mL (≈ 21.8 µM)
- MIC [4]: > 50 µg/mL
- MIC (Burkholderia cenocepacia): > 50 µg/mL
- MBC (Bacillus thuringiensis): 50 µg/mL (≈ 136 µM)
- MIC (Bacillus thuringiensis; Bacillus thuringiensis Berliner ATCC: 10792): 8 µg/mL (≈ 21.8 µM)
- MIC (Candida glabrata): 25 µg/mL (≈ 68.1 µM)

Compound: CN[C@H](CC(C)C)C(=O)N[C@H]1C(=O)N[C@@H](CC(N)=O)C(=O)N[C@H]2C(=O)N[C@H]3C(=O)N[C@H](C(=O)N[C@H](C(=O)O)c4cc(O)cc(O)c4-c4cc3ccc4O)[C@H](O)c3ccc(c(Cl)c3)Oc3cc2cc(c3O[C@@H]2O[C@H](CO)[C@@H](O)[C@H](O)[C@H]2O[C@H]2C[C@](C)(N)[C@H](O)[C@H](C)O2)Oc2ccc(cc2Cl)[C@H]1O [vancomycin, reference compound]
- cell wall synthesis inhibition (glucosamine incorporation) (S. aureus [5]): increasingly inhibits glucosamine from incorporating into a cell wall

Compound: Brc1ccc2[nH]cc(Sc3ccccc3Br)c2c1 [Compound 174I, 5-bromo-3-((2-bromophenyl)thio)-1H-indole]
- EC50 (HepG2 cells [1]): 25.4 µg/mL (≈ 66.3 µM)
- permeabilization of HepG2 cells (SYTOX) (HepG2 cells [2]): no permeabilization of HepG2 cells
- cell wall synthesis inhibition (glucosamine incorporation) (S. aureus [5]): substantial cell wall synthesis inhibition
- mechanism of action by transcriptomic and metabolic studies [3]: branched chain amino acid biosynthesis inhibition
- cell permeability by SYTOX green fluorescence (S. aureus [6]): clear dose-dependent increase in permeability
